Each structure is given as a SMILES string.

A short description of series [1]: Stability constant of Sc(III) complex by 1H and 45Sc NMR batch samples and pH-potentiometric titration; pSc calculation. As to conditions: 0.15 M NaCl, 37 °C. The series is classed as physicochemical. The procedure:
The stability constant of the Sc(DO3AM-NI) complex was assessed by ^1H and ^45Sc-NMR studies using samples prepared in the 0.055–0.195 M acid concentration range. […] Absence of protonation and the presence of a ternary hydroxydo species formation with KScL•OH = 10.88(5) were detected at our experimental conditions. The NMR samples contained 3.32 mM ligand, ScCl3 and a constant ionic strength of 0.15 M NaCl. The samples were thermostated at 37 °C, and their ^1H- and ^45Sc-NMR spectra were recorded after 60 days. In order to ensure that the equilibrium in the samples was attained, the ^1H and ^45Sc-NMR measurements were repeated again 90 days later. The spectra were practically identical with the spectra recorded at 60 days (Figures S4 and S5). As expected, the thermodynamic stability constant of the Sc(DO3AM-NI) complex (log KScL = 22.36(4)) was considerably lower than those of Sc(III) complexes formed with DOTA, DTPA or AAZTA ligands (Table 1). A moderate decrease in terms of thermodynamic stability constants was already observed for the complexes of DO3A-monamides formed with Gd(III) ions in comparison to the stability of parent Gd(DOTA)^− chelate. Despite the lower stability constant of the complex, the Sc(III) ion was complexed completely around pH = 2.0 (in a millimolar concentration range, see Figure 2). However, it might be misleading to directly compare the stability constants of the complexes formed by ligands of different basicity (as it depends on the basicity of the ligand); therefore, we calculated and compared the pSc values (which could be treated as conditional constants) for the complexes shown in Table 1 by taking the protonation constants of ligands, the stability constants of the complex species present in solution and the hydrolysis of the Sc(III) ion (according to Ref. [23]: log βSc(OH) = −4.3, log βSc(OH)2 = −9.7, log βSc(OH)3 = −16.1, log βSc(OH)4 = −26.0 and log βSc2(OH)4 = −6.0) into account.
The equilibrium measurements were performed at constant ionic strength maintained by 0.15 M NaCl at 37 °C. For determining the protonation constants of DO3AM-NI, two parallel pH-potentiometric titrations were performed with 0.1611 M NaOH in a 5.00 cm^3 sample containing the ligand at the concentration of 2.76 mM. The stability constant of Sc(DO3AM-NI) was assessed by ^1H and ^45Sc NMR in 0.7 mL “batch” samples containing the metal and the ligand at 3.32 mM and different concentrations of strong acid (0.05–0.20 M) aged 90 days (see below). The formation of protonated and ternary hydroxydo complex species was probed by pH-potentiometric titration by titrating the preformed complex (at a concentration of 1.95 mM) with standardized NaOH solution. For the calculation of the logKMH-1L value, the VNaOH–pH data used were obtained in the pH range 1.68–11.85. The pH-potentiometric titrations were carried out with a Metrohm 785 DMP Titrino titration workstation with the use of a Metrohm-6.0233.100-combined electrode calibrated via a two-point calibration routine using KH-phthalate (pH = 4.005) and borax (pH = 9.177) buffers. The titrated samples were stirred with a magnetic stirrer, and N2 gas was bubbled through the solutions to avoid the effect of CO2. For the calculation of [H^+] from the measured pH values, the method proposed by Irving et al. was applied. For this, a 0.01M HCl solution was titrated with the standardized NaOH solution in the presence of 0.15 M NaCl ionic strength at 37 °C. The differences between the measured (pHread) and calculated pH (-log[H^+]) values were used to obtain the equilibrium H^+ concentration from the pHmeas values during the titrations. […] For the calculation of the equilibrium constants, the PSEQUAD program was used.
^1H- and ^45Sc-NMR measurements (400 MHz and 97 MHz, respectively) were performed with a Bruker DRX 400 (9.4 T) spectrometer equipped with a Bruker VT-1000 thermocontroller and a BB inverse z-gradient probe (5 mm). […]

Series [2] can be described thus: Formation rate of Sc(DO3AM-NI) at acidic pH followed by 1H and 45Sc NMR. The series is classed as physicochemical. As to conditions: pH = 1.52, 25 °C, 3.80 mM ligand, 4.90 mM ScCl3. The procedure: This is promising for the labeling studies, yet it also underlines that the so-called “batch-method” must be applied in very acidic samples for the determination of the stability constant of the Sc(DO3AM-NI) chelate.
^1H- and ^45Sc-NMR measurements (400 MHz and 97 MHz, respectively) were performed with a Bruker DRX 400 (9.4 T) spectrometer equipped with a Bruker VT-1000 thermocontroller and a BB inverse z-gradient probe (5 mm). The kinetic experiments were performed at 25 °C, whereas the equilibrium studies were performed at 37 °C in aqueous solutions using D2O (in capillary) for locking. Typical parameters of ^45Sc-NMR measurements used were pulse length p1 = 15.6 μs (90°), relaxation delay d1 = 0.1 s and 128 scans. The formation reaction of the Sc(DO3AM-NI) complex was followed by ^1H- and ^45Sc-NMR spectroscopy in a sample containing 3.80 mM ligand and 4.90 mM ScCl3 with a total acid concentration corresponding to a pH of 1.54. […] Actually, the intensity of the ^45Sc-NMR signal of Sc(III)aq could precisely be measured while that of the broad signal corresponding to the Sc(DO3AM-NI) complex could not. […] The molar integral values of the ^45Sc-NMR signal of Sc(III)aq were determined by recording the ^45Sc-NMR spectra of a 50 mM ScCl3 solution containing 0.015 M HCl as a reference sample. […]

Turning to `O=C([O-])CN1CCN(CC(=O)[O-])CCN(CC(=O)NCCn2ccnc2[N+](=O)[O-])CCN(CC(=O)[O-])CC1.[Sc+3]` [Sc(DO3AM-NI)], in series [1], the “log KScL•OH (ternary hydroxydo species)” value is 10.88(5) and the “log KSc•L (stability constant of Sc(III) complex)” value was 22.36(4). The “pH around which the Sc(III) ion is complexed completely” value in series [1] (millimolar concentration range) is around 2.0. In series [2], the “time for complex formation to reach equilibrium” value is recorded as “about twelve”.

The values above are taken from paper PMC9228955, “Synthesis, Physicochemical, Labeling and In Vivo Characterization of ^44Sc-Labeled DO3AM-NI as a Hypoxia-Sensitive PET Probe” (Pharmaceuticals, 2022).
